Key:
[1] = tested on: HMPV clinical isolate A2 strain TN 94-49; assay: HMPV antiviral assay, Method 1 (LLC-MK2 cells, ATP-Lite); format: cell-based; details: human metapneumovirus, hMPV A2 TN/94-49, LLC-MK2 cells
Experimental: In vitro HMPV antiviral activity was evaluated using the clinical isolate A2 strain TN 94-49 (obtained from Dr. John Williams, Vanderbilt University, Tennessee) and LLC-MK2 cells (ATCC #CCL-7), an immortalized kidney epithelial cell line from Macaca mulatta. Compounds were resuspended in dimethyl sulfoxide (DMSO) at 10 mM, serially diluted and added to a 384-well source plate. Subsequently, the compounds were diluted and transferred onto 384-well assay plates using the Echo-650 automated liquid handling system (Beckman Coulter, Indiana). The test compounds were assessed in duplicate at a top concentration of 2 μM followed by 2.5-fold serial dilutions to give a total of 10 concentration points. DMSO control wells were also included on the assay plates and were either infected or not, acting as positive and negative controls. A2 TN 94-49 virus infections were performed in-suspension with LLC-MK2 cells. The cells were washed twice with PBS and removed from the cell-culture flask with 0.25% trypsin-EDTA (Thermo Fisher Scientific, MA). The trypsin-EDTA was inactivated by resuspending in 2% fetal bovine serum (FBS) and OptiMEM (ThermoFisher Scientific, MA) containing 1% penicillin-streptomycin. Cells were pelleted by centrifuging for 5 minutes at 800 rpm, the supernatant was removed, and cells were re-suspended and washed in PBS plus 100 μg/mL CaCl2). This step was performed twice. Cells were then re-suspended in serum-free (SF)-OptiMEM containing 4 μg/mL TPCK-Trypsin (Sigma Aldrich, MO), 1% penicillin-streptomycin (ThermoFisher Scientific, MA) and 100 μg/mL CaCl2). Cells were counted and seeded at a density of 5,000 cells/well, 12.5 μL/well. Virus infections were done at a multiplicity of infection (MOI) of 0.005 with 12.5 μL added per well. Virus infections were performed in infection media which contained SF-OptiMEM, 100 μg/mL CaCl2) and 1% penicillin-streptomycin. HMPV viral stocks are suspended in infection media+5% glycerol, thus an equal volume of infection media+5% glycerol was added to uninfected wells to equalize the final % glycerol across all wells of the assay plate. The final concentration of TPCK-trypsin was 2 μg/mL. The assay plates were incubated at 37° C., 5% CO2 for 7 days. After 7 days incubation, 12.5 μL of ATP-Lite (PerkinElmer, MA) was added to each well and the raw luminescence values were determined using the Envision 2104 (Perkin Elmer, MA). The average of the raw luminescence values for the cells and virus only positive control wells was subtracted from all conditions tested and the percent cell health was determined by dividing these values by the average of the cells only negative control wells. EC50 values were then calculated by non-linear regression using a four-parameter curve logistic equation. The curve fit model employed was XLFit Dose Response One Site Model 200: y=(A+(B/(1+((x/C)^D)))), where A is the minimum y value, B is the maximum y value, C is the log EC50 value, and D is the slope factor.

[2] = tested on: HMPV clinical isolate A2 strain TN 94-49; assay: HMPV antiviral assay, Method 2 (LLC-MK2 cells with CP-100-356, ATP-Lite); format: cell-based; details: human metapneumovirus; hMPV A2 TN/94-49, LLC-MK2 cells with CP-100-356, Method 2
Procedure, shortened: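 EC50 comes from a four-parameter fit of percent cell viability (ATP-Lite, normalized to virus-only and cell-only wells) after 7 days at 37 °C. Infection used HMPV A2 TN 94-49 at MOI 0.16 in LLC-MK2 cells, with 2 μM P-gp inhibitor CP-100-356 and 2 μg/mL TPCK-trypsin final; dose range 200 nM top, 2.5-fold, 10 points, duplicate.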

Row | Structure (SMILES) | EC50 [1] | EC50 [2]
1 | C[C@]1(C(N)=O)COc2c1cc([C@@](O)(CNC(=O)c1cc(OC3CC3)c3nc(C4CC4)sc3c1)C1CC1)nc2-c1cc(Cl)c(F)cc1F [Example 3] | < 500 nM | < 200 nM
2 | C[C@]1(C(N)=O)COc2c1cc([C@@](O)(CNC(=O)c1cc(OC3CC3)n3nc(C4CC4)cc3c1)C1CC1)nc2-c1cc(Cl)c(F)cc1F [Example 4] | < 500 nM | < 200 nM
3 | C[C@]1(C(N)=O)COc2c1cc([C@@](O)(CNC(=O)c1cc(OC3CC3)c3nn(C4(F)CC4)cc3c1)C1CC1)nc2-c1cc(Cl)c(F)cc1F [Example 5] | < 500 nM | < 200 nM
4 | COc1cc(C(=O)NC[C@@](O)(c2ccc(F)cc2)c2cc3c(c(-c4cc(Cl)c(F)cc4F)n2)OC[C@]3(C)C(N)=O)cc2cn(C3CC3)nc12 [Example 12] | < 500 nM | < 200 nM
5 | COc1cc(C(=O)NC[C@@](O)(c2ccc(F)cc2)c2cc3c(c(-c4cc(Cl)c(F)cc4F)n2)OC[C@]3(C)C(N)=O)cc2cn(C3(F)CC3)nc12 [Example 14] | < 500 nM | < 200 nM
6 | COc1cc(C(=O)NC[C@@](O)(c2ccccc2)c2cc3c(c(-c4ccc5c(c4)OC(F)(F)O5)n2)OC[C@]3(C)C(N)=O)cc2cn(C3CC3)nc12 [Example 18] | < 500 nM | < 200 nM
7 | COc1cc(C(=O)NC[C@@](O)(c2ccccc2)c2cc3c(c(-c4ccc5c(c4)OC(F)(F)O5)n2)OC[C@]3(C)C(N)=O)cc2cn(C3(F)CC3)nc12 [Example 19] | < 500 nM | < 200 nM
8 | COc1cc(C(=O)NC[C@](O)(c2cc3c(c(-c4cc(F)c(F)cc4F)n2)OC[C@]3(C)C(N)=O)C2CC2)cc2cc(C)c(F)nc12 [Example 21] | < 500 nM | < 200 nM
9 | COc1cc(C(=O)NC[C@](O)(c2cc3c(c(-c4ccc5c(c4)OC(F)(F)O5)n2)OC[C@]3(C)C(N)=O)C2CC2)cc2cc(C)c(F)nc12 [Example 22] | < 500 nM | < 200 nM
10 | C[C@]1(C(N)=O)COc2c1cc([C@@](O)(CNC(=O)c1cc(OC3CC3)c3nn(C4CC4)cc3c1)C1CC1)nc2-c1ccc(F)c(Cl)c1Cl [Example 23] | < 500 nM | < 200 nM
11 | COc1cc(C(=O)NC[C@](O)(c2cc3c(c(-c4cc(F)c(F)cc4F)n2)OC[C@]3(C)C(N)=O)C2CC(F)(F)C2)cc2cn(C(F)F)nc12 [Example 33] | > 500 nM | < 200 nM
12 | C[C@]1(C(N)=O)COc2c1cc([C@@](O)(CNC(=O)c1cc(OC3CC3)c3nn(C(F)F)cc3c1)C1CC(F)(F)C1)nc2-c1cc(F)c(F)cc1F [Example 34] | < 500 nM | < 200 nM
13 | C[C@]1(C(N)=O)COc2c1cc([C@@](O)(CNC(=O)c1cc(OCCO)c3nn(C4CC4)cc3c1)C1CC1)nc2-c1ccc(F)c(Cl)c1F [Example 37] | > 500 nM | < 200 nM
14 | C[C@@H](O)COc1cc(C(=O)NC[C@](O)(c2cc3c(c(-c4ccc(F)c(Cl)c4F)n2)OC[C@]3(C)C(N)=O)C2CC2)cc2cn(C3CC3)nc12 [Example 38] | > 500 nM | < 200 nM
15 | COc1cc(C(=O)NC[C@@](O)(c2ccc(F)cc2)c2cc3c(c(-c4ccc(F)c(Cl)c4Cl)n2)OC[C@]3(C)C(N)=O)cc2cn(C3CC3)nc12 [Example 41] | < 500 nM | < 200 nM
16 | COc1cc(C(=O)NC[C@@](O)(c2ccc(F)cc2)c2cc3c(c(-c4ccc(F)c(Cl)c4Cl)n2)OC[C@]3(C)C(N)=O)cc2cn(C3(F)CC3)nc12 [Example 43] | < 500 nM | < 200 nM
17 | COc1cc(C(=O)NC[C@](O)(c2cc3c(c(-c4cc(F)c(F)cc4C)n2)OC[C@]3(C)C(N)=O)C2CC2)cc2cn(C3CC3)nc12 [Example 50] | > 500 nM | < 200 nM
18 | COc1cc(C(=O)NC[C@](O)(c2cc3c(c(-c4ccc(F)c(Cl)c4Cl)n2)OC[C@]3(C)C(N)=O)C(F)(F)F)cc2cn(C3CC3)nc12 [Example 65] | < 500 nM | < 200 nM

Row | Structure (SMILES) | EC50 [1] | EC50 [2]
19 | C[C@]1(C(N)=O)COc2c1cc([C@@](O)(CNC(=O)c1cc(OC3CC3)c3nn(C4CC4)cc3c1)c1ccccc1)nc2-c1ccc2c(c1Cl)OC(F)(F)O2 [Example 252] | < 500 nM | 
20 | COc1cc(C(=O)NC[C@@](O)(c2ccccc2)c2cc3c(c(-c4ccc5c(c4Cl)OC(F)(F)O5)n2)OC[C@]3(C)C(N)=O)cc2cn(C(F)F)nc12 [Example 253] | < 500 nM | 
21 | COc1cc(C(=O)NC[C@@](O)(c2ccccc2)c2cc3c(c(-c4ccc5c(c4Cl)OC(F)(F)O5)n2)OC[C@]3(C)C(N)=O)cc2cc(C3CC3)nn12 [Example 254] | < 500 nM | 
22 | COc1cc(C(=O)NC[C@@](O)(c2ccccc2)c2cc3c(c(-c4ccc5c(c4Cl)OC(F)(F)O5)n2)OC[C@]3(C)C(N)=O)cc2cn(C3(F)CC3)nc12 [Example 255] | < 500 nM | 
23 | C[C@]1(C(N)=O)COc2c1cc([C@@](O)(CNC(=O)c1ccc3nc(N)sc3c1)c1ccccc1)nc2-c1ccc2c(c1Cl)OC(F)(F)O2 [Example 256] | < 500 nM | 
24 | COc1cc(C(=O)NC[C@@](O)(c2ccccc2)c2cc3c(c(-c4ccc(F)c(Cl)c4Cl)n2)OC[C@]3(C)C(N)=O)cc2cn(C3CC3)nc12 [Example 257] | < 500 nM | 
25 | COc1cc(C(=O)NC[C@@](O)(c2ccccc2)c2cc3c(c(-c4cccc(Cl)c4Cl)n2)OC[C@]3(C)C(N)=O)cc2cn(C(F)F)nc12 [Example 261] | < 500 nM | 
26 | Cc1nc2ccc(C(=O)NC[C@@](O)(c3ccccc3)c3cc4c(c(-c5ccc(F)c(Cl)c5Cl)n3)OC[C@]4(C)C(N)=O)cc2o1 [Example 267] | < 500 nM | 
27 | [2H]C([2H])([2H])c1nc2c(OC)cc(C(=O)NC[C@@](O)(c3cccc(F)c3)c3cc4c(c(-c5ccc(F)c(Cl)c5Cl)n3)OC[C@]4(C)C(N)=O)cc2s1 [Example 272] | < 500 nM | 
28 | [2H]C([2H])([2H])c1nc2c(OC)cc(C(=O)NC[C@@](O)(c3ccccc3)c3cc4c(c(-c5ccc(F)c(Cl)c5Cl)n3)OC[C@]4(C)C(N)=O)cc2s1 [Example 273] | < 500 nM | 
29 | COc1cc(C(=O)NC[C@@](O)(c2cccc(F)c2)c2cc3c(c(-c4ccc5c(c4Cl)OC(F)(F)O5)n2)OC[C@]3(C)C(N)=O)cc2cn(C3CC3)nc12 [Example 274] | < 500 nM | 
30 | COc1cc(C(=O)NC[C@@](O)(c2cccc(F)c2)c2cc3c(c(-c4ccc(F)c(Cl)c4Cl)n2)OC[C@]3(C)C(N)=O)cc2oc(C)nc12 [Example 279] | < 500 nM | 
31 | Cc1nc2ccc(C(=O)NC[C@@](O)(c3cccc(F)c3)c3cc4c(c(-c5ccc6c(c5Cl)OC(F)(F)O6)n3)OC[C@]4(C)C(N)=O)cc2o1 [Example 284] | < 500 nM | 
32 | COc1cc(C(=O)NC[C@@](O)(c2ccccc2)c2cc3c(c(-c4cc(C(F)F)c(F)cc4F)n2)OC[C@]3(C)C(N)=O)cc2cn(C3CC3)nc12 [Example 288] | < 500 nM | 
33 | COc1cc(C(=O)NC[C@@](O)(c2cc3c(c(-c4cc(Cl)c(F)cc4F)n2)OC[C@]3(C)C(N)=O)c2cc(C)cs2)cc2cn(C3CC3)nc12 [Example 466] | > 500 nM | 
34 | COc1cc(C(=O)NC[C@](O)(c2cc3c(c(-c4cc(Cl)c(F)cc4F)n2)OC[C@]3(C)C(N)=O)c2cc(C)cs2)cc2cn(C3CC3)nc12 [Example 467] | < 500 nM | 
35 | COc1cc(C(=O)NCC(O)(c2cc3c(c(-c4cc(Cl)c(F)cc4F)n2)OC[C@]3(C)C(N)=O)c2cc3ccccc3s2)cc2cn(C3CC3)nc12 (stereo partly drawn) [Example 469] | > 500 nM | 
36 | COc1cc(C(=O)NCC(O)(c2csc(Cl)c2)c2cc3c(c(-c4cc(Cl)c(F)cc4F)n2)OC[C@]3(C)C(N)=O)cc2cn(C3CC3)nc12 (stereo partly drawn) [Example 471] | < 500 nM | 
